Measurements taken from patent US20090258041A1, “Protection of Oxidizable Agents” (priority 2005, published 2009).

Assay: Stabilization of Vitamin C: spectral absorption at 265 nm after exposure to air with storage in the dark
Assay type: physicochemical
Details: Vitamin C combined with Nanotope AO7 (encapsulated AO7 1.00%, ascorbic acid 1.00% in water phase), phosphate buffer pH 6, exposure to air, 20° C.
Experimental: Aqueous solution of Vitamin C (concentration=40.5 mM), buffered at pH=6 (Phosphate buffer, previously evacuated and then flushed with Nitrogen to remove as much Oxygen as possible). a) Standalone Vitamin C: 0.7 mM b) Combination Vitamin C/Nanotope AO7: [table] Absorption measurement with Perkin Elmer Lambda 16; cuvette length d=0.1 cm Irradiation chamber Atlas CPS+; temperature of measurement=35° C. Spectral absorption of Vitamin C (Ascorbic Acid) at its maximum wavelength (Imax=265 nm); maximum extinction at time after exposure to air with storage in the dark. Experiments were done at 20° C.

- protection of Vitamin C (maximum extinction at 265 nm): efficiently protected
Compound: O=C1O[C@H]([C@@H](O)CO)C(O)=C1O [Vitamin C, ascorbic acid]
